Source: patent publication US20170052177A1, “COMPETITION ASSAY” (PharmaDiagnostics NV, priority 2014, published 2017)
Ends that are not written are not given here.

Key:
Neutravidin = Neutravidin (Gallus gallus, UniProt P02701); assay: LSPR competition assay: Neutravidin pre-incubated with HABA or biotin, then biotin-GNR conjugate; type: binding; conditions: for ΔRU as a function of the HABA and biotin concentration: fixed Neutravidin, biotin-GNR conjugate, final DMSO 5 w %, increasing concentration of added compound (FIG. 2)
Sequence of Neutravidin (P02701 25-152): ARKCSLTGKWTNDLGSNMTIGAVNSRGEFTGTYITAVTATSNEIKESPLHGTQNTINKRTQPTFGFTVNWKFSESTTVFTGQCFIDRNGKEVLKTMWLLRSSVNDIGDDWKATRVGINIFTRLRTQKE
From the text: Gold nanorods (GNRs) which are coated with mercaptoundecanoic acid (MUDA) were provided in suspension. The MUDA-coated GNRs provide an outer layer of carboxyl functional groups on their surface. For the conjugation of biotin to the GNRs, a biotin derivative (amino-PEG4-biotin) was used containing a polyethyleneglycol linker (4 monomers) having an amino functional group. More particularly, the carboxyl groups on the GNRs were activated using ethyl(dimethylaminopropyl) carbodiimide (EDC) and N-hydroxysuccinimide (NHS). Then, amino-PEG4-biotin was coupled via its amino functional group to the carboxyl groups provided on the GNRs, thereby providing a biotin-GNR conjugate. Potentially remaining unreacted carboxylic acid groups were blocked via reaction with 2-(2-aminoethoxy)ethanol (AEE). The biotin-GNR conjugate was purified from unreacted EDC, NHS, amino-PEG4-biotin and AEE by buffer exchange using a centrifugal ultrafiltration device.
The determination of the inhibition of the interaction between HABA and Neutravidin according to the methods described herein involves contacting the biotin-GNR conjugate with Neutravidin. The optimal amount of Neutravidin to be contacted with the conjugate was determined via titration. More particularly, a fixed amount of biotin-GNR was incubated with various concentrations of Neutravidin, and the absorbance spectra after incubation was recorded. ΔRU was calculated and plotted as a function of the Neutravidin concentration (FIG. 1). Suitable Neutravidin concentrations are determined as those concentrations which are sufficiently high to provide a detectable signal (ΔRU), provided that the signal is not in the plateau of the dose-response curve. Optimal concentrations are those providing a signal in the linear response range.
A fixed amount of Neutravidin was pre-incubated with different concentrations of HABA and biotin, followed by incubation with a fixed amount of biotin-GNR conjugate. HABA was provided as a solution in DMSO. […] The relative amounts of biotin-GNR and Neutravidin used are determined via titration as described above (A2). […]

MDM2 = MDM2 (Homo sapiens, UniProt Q00987); assay: LSPR competition assay: MDM2 pre-incubated with nutlin-3 or p53, then p53-GNR conjugate; type: binding; conditions: fixed MDM2, p53-GNR conjugate; increasing concentration of added compound (FIGS. 4A and 4B)
Sequence of MDM2 (Q00987 whole entry, species assumed): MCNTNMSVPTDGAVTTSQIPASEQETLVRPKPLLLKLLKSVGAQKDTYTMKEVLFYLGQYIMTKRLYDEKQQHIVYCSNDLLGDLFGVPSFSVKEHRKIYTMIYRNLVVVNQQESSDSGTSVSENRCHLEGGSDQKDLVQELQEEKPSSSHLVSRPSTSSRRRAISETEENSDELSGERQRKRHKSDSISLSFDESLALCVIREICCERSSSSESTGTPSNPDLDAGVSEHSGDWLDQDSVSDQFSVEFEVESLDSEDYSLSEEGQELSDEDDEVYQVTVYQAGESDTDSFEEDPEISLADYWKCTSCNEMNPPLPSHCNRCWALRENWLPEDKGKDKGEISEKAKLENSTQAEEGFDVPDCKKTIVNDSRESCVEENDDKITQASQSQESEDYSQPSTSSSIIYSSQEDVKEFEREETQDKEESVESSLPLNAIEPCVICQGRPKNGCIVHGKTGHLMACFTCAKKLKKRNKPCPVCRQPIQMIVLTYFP
Procedure: The determination of the inhibition of the interaction between MDM2 and p53 according to the methods described herein involves contacting the p53-GNR conjugate with MDM2. The optimal amount of MDM2 to be contacted with the conjugate was determined via a similar titration experiment as described above for Neutravidin (A2). ΔRU was calculated and plotted as a function of the MDM2 concentration (FIG. 3).

Row | ΔRU as a function of the added amount of nutlin-3 and p53 (MDM2) | Compound | ΔRU as a function of the HABA and biotin concentration (Neutravidin) | relative affinity to Neutravidin (Neutravidin; from concentration needed for significant reduction of ΔRU (FIG. 2))
1 | – | O=C(O)c1ccccc1N=Nc1ccc(O)cc1 [HABA, (2-(4-hydroxyazobenzene)benzoic acid)] | ΔRU decreases | lower affinity to Neutravidin than biotin
2 | ΔRU decreases | p53: p53 peptide (Sequence: CGSGSGSGSGSRFMDYWEGL); p53 protein also known as cellular tumor antigen p53 (also: conjugated to gold nanorods, site not given here) | – | –
3 | – | O=C(O)CCCC[C@@H]1SC[C@@H]2NC(=O)N[C@@H]21 [biotin] | ΔRU decreases | –
